Results on 9 compounds are retold here after patent publication US10961231B2, “NTCP inhibitors” (National Institute of Biological Sciences, Beijing, priority 2018, dated 2021).

For one assay, the target named is T1, NTCP (Homo sapiens, UniProt Q14973).
T1 sequence (Q14973 1-349): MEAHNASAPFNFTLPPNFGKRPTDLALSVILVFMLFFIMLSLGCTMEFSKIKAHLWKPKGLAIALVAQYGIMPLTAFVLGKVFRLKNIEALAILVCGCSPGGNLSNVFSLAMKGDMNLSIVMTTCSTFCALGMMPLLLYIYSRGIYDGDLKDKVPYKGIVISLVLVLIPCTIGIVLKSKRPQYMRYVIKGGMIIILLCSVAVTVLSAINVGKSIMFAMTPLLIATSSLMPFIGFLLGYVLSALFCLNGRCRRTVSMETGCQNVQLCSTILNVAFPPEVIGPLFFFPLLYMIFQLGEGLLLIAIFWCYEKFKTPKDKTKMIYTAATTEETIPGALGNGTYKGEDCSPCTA
The experiment in a line: [3H]-TCA uptake assay (NTCP inhibition). In kind it is cell-based. To be noted: IC50, given as a range, marked * (asterisk not explained). An outline of the steps:
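PTH and HepG2-NTCP cells kept 24 h in PMM to induce NTCP, then exposed 2 h to test compounds or DMSO. Uptake of 1 μM [3H]-taurocholate in Na+ Ringer's buffer (145 mM Na) ran 15 min at 37° C. Cells washed, lysed in 1% Triton X-100, and radioactivity counted by liquid scintillation.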
In general, IC50 refers to the concentration at which inhibition is half-maximal. A low value points to higher potency. With `CCC1NC(=O)C(C2OC(Oc3cccc(OCCc4ccccc4)c3)CC2C)N(C)C(=O)C(C(C)C)N(C)C(=O)C(CC(C)C)N(C)C(=O)C(CC(C)C)N(C)C(=O)C(C)NC(=O)C(C)NC(=O)C(CC(C)C)N(C)C(=O)C(C(C)C)NC(=O)C(CC(C)C)N(C)C(=O)CN(C)C1=O` (stereo not drawn) [Compound 35A-o], the concentration for half-maximal inhibition (IC50) is 1000 to 100000 nM.

The compound `CCC1NC(=O)C(C2OC(Oc3c(OC)cccc3OC)CC2C)N(C)C(=O)C(C(C)C)N(C)C(=O)C(CC(C)C)N(C)C(=O)C(CC(C)C)N(C)C(=O)C(C)NC(=O)C(C)NC(=O)C(CC(C)C)N(C)C(=O)C(C(C)C)NC(=O)C(CC(C)C)N(C)C(=O)CN(C)C1=O` (stereo not drawn) [Compound 36A-o] had an IC50 of 1000 to 100000 nM. `CCC1NC(=O)C(C2OC(Oc3ccc(OC)c(OC)c3)CC2C)N(C)C(=O)C(C(C)C)N(C)C(=O)C(CC(C)C)N(C)C(=O)C(CC(C)C)N(C)C(=O)C(C)NC(=O)C(C)NC(=O)C(CC(C)C)N(C)C(=O)C(C(C)C)NC(=O)C(CC(C)C)N(C)C(=O)CN(C)C1=O` (stereo not drawn) [Compound 37A-o] displayed a 50% inhibitory concentration (IC50) of 1000 to 100000 nM. `CCC1NC(=O)C(C2OC(Oc3cc(OC)cc(OC)c3)CC2C)N(C)C(=O)C(C(C)C)N(C)C(=O)C(CC(C)C)N(C)C(=O)C(CC(C)C)N(C)C(=O)C(C)NC(=O)C(C)NC(=O)C(CC(C)C)N(C)C(=O)C(C(C)C)NC(=O)C(CC(C)C)N(C)C(=O)CN(C)C1=O` [Compound 38A-o, [2-((2R,3R)-5-(3,5-dimethoxphenoxy)-3-methyltetrahydrofuran-2-yl)-2-(methylamino)acetic acid]^1-cyclosporin A] registered a 50% inhibitory concentration (IC50) of 1000 to 100000 nM.

The same assay, now with this note: IC50, given as a range; assay not given.
With `CCC1NC(=O)C(C2OC(Sc3c(OC)cccc3OC)CC2C)N(C)C(=O)C(C(C)C)N(C)C(=O)C(CC(C)C)N(C)C(=O)C(CC(C)C)N(C)C(=O)C(C)NC(=O)C(C)NC(=O)C(CC(C)C)N(C)C(=O)C(C(C)C)NC(=O)C(CC(C)C)N(C)C(=O)CN(C)C1=O` [Compound 36A, [2-((2R,3R)-5-(2,6-dimethoxyphenylthio)-3-methyltetrahydrofuran-2-yl)-2-(methylamino)acetic acid]^1-cyclosporin A], the IC50 lay within 1000 to 10000 nM.

Staying with this assay, now noted: given as a range; assay not given.
As for `CCC1NC(=O)C(C2OC(Sc3cccc(OCCc4ccccc4)c3)CC2C)N(C)C(=O)C(C(C)C)N(C)C(=O)C(CC(C)C)N(C)C(=O)C(CC(C)C)N(C)C(=O)C(C)NC(=O)C(C)NC(=O)C(CC(C)C)N(C)C(=O)C(C(C)C)NC(=O)C(CC(C)C)N(C)C(=O)CN(C)C1=O` [Compound 35A, [2-((2R,3R)-3-methyl-5-(3-phenethoxyphenylthio)tetrahydrofuran-2-yl)-2-(methylamino)acetic acid]^1-cyclosporin A], the IC50 fell in the range of 1 to 1000 nM. Same read-out and setting: the value for `CCC1NC(=O)C(C2OC(Sc3ccc(OC)c(OC)c3)CC2C)N(C)C(=O)C(C(C)C)N(C)C(=O)C(CC(C)C)N(C)C(=O)C(CC(C)C)N(C)C(=O)C(C)NC(=O)C(C)NC(=O)C(CC(C)C)N(C)C(=O)C(C(C)C)NC(=O)C(CC(C)C)N(C)C(=O)CN(C)C1=O` [Compound 37A, [2-((2R,3R)-5-(3,4-dimethoxyphenylthio)-3-methyltetrahydrofuran-2-yl)-2-(methylamino)acetic acid]^1-cyclosporin A] was 1 to 1000 nM; that for `CCC1NC(=O)C(C2OC(Sc3cc(OC)cc(OC)c3)CC2C)N(C)C(=O)C(C(C)C)N(C)C(=O)C(CC(C)C)N(C)C(=O)C(CC(C)C)N(C)C(=O)C(C)NC(=O)C(C)NC(=O)C(CC(C)C)N(C)C(=O)C(C(C)C)NC(=O)C(CC(C)C)N(C)C(=O)CN(C)C1=O` [Compound 38A, [2-((2R,3R)-5-(3,5-dimethoxyphenylthio)-3-methyltetrahydrofuran-2-yl)-2-(methylamino)acetic acid]^1-cyclosporin A] was 1 to 1000 nM; that for `CCOc1cc(OCC)cc(SC2CC(C)C(C3C(=O)NC(CC)C(=O)N(C)CC(=O)N(C)C(CC(C)C)C(=O)NC(C(C)C)C(=O)N(C)C(CC(C)C)C(=O)NC(C)C(=O)NC(C)C(=O)N(C)C(CC(C)C)C(=O)N(C)C(CC(C)C)C(=O)N(C)C(C(C)C)C(=O)N3C)O2)c1` [Compound 39A, [2-((2R,3R)-5-(3,5-diethoxyphenylthio)-3-methyltetrahydrofuran-2-yl)-2-(methylamino)acetic acid]^1-cyclosporin A] was 1 to 1000 nM.
